{"source": "patent US7476755B2", "about": "“Therapeutic compounds” (Allergan, Inc., priority 2006, dated 2009)", "key": {"[1]": {"assay": "In vivo testing, dog IOP", "details": "Conc. 0.1% (g/100 mL)", "text": "(§1) In vivo testing done as described in U.S. patent application Ser. No. 11/009,298 gave the results in Table 2 below."}, "[2]": {"assay": "In vivo testing, dog hyperemia", "details": "Conc. 0.1% (g/100 mL)", "text": "as §1"}, "[3]": {"assay": "In vivo testing, monkey IOP", "details": "Conc. 0.1% (g/100 mL)", "text": "as §1"}, "[4]": {"assay": "In vivo testing, rabbit hyperemia", "details": "Conc. 0.1% (g/100 mL)", "text": "as §1"}, "[5]": {"target": "T1, hEP2/Gqs5 (Homo sapiens, UniProt P43116)", "T1 construct": "expressed in transfected cells", "T1 sequence (P43116 whole entry)": "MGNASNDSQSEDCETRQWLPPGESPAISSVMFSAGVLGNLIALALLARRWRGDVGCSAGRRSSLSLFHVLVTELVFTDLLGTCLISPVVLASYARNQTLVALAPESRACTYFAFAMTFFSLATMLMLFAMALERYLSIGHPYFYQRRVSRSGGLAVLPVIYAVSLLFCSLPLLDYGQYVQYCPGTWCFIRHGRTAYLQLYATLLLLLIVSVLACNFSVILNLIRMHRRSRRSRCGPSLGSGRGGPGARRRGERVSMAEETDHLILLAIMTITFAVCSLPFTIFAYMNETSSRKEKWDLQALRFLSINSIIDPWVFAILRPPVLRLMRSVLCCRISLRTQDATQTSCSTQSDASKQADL", "assay": "FLIPR calcium signal, EP2", "type": "cell-based", "details": "HEK-293(EBNA) cells, read-out: EP2 Ca2+ EC50", "procedure": "HEK-293(EBNA) cells, stably expressing one type or subtype of recombinant human prostaglandin receptors (prostaglandin receptors expressed: hDP/Gqs5; hEP2; hEP2/Gqs5; hEP3A/Gqi5; hEP4/Gqs5; hFP; hIP; hTP), were cultured in 100 mm culture dishes in high-glucose DMEM medium containing 10% fetal bovine serum, 2 mM I-glutamine, 250 μg/ml geneticin (G418) and 200 μg/ml hygromycin B as selection markers, and 100 units/ml penicillin G, 100 μg/ml streptomycin and 0.25 μg/ml amphotericin B.\nCells were seeded at a density of 5×10^4 cells per well in Biocoat® Poly-D-lysine-coated black-wall, clear-bottom 96-well plates (Becton-Dickinson) and allowed to attach overnight in an incubator at 37° C. Cells were then washed two times with HBSS-HEPES buffer (Hanks Balanced Salt Solution without bicarbonate and phenol red, 20 mM HEPES, pH 7.4) using a Denley Cellwash plate washer (Labsystems). […]\nCells were excited with an Argon laser at 488 nm, and emission was measured through a 510-570 nm bandwidth emission filter (FLIPR™, Molecular Devices, Sunnyvale, Calif.). […] The peak increase in fluorescence intensity was recorded for each well. […] The peak fluorescence change in each drug-containing well was then expressed relative to the controls. […]"}, "[6]": {"target": "T2, EP4 (Homo sapiens, UniProt P35408)", "T2 construct": "expressed in transfected cells; membrane fraction", "T2 sequence (P35408 whole entry)": "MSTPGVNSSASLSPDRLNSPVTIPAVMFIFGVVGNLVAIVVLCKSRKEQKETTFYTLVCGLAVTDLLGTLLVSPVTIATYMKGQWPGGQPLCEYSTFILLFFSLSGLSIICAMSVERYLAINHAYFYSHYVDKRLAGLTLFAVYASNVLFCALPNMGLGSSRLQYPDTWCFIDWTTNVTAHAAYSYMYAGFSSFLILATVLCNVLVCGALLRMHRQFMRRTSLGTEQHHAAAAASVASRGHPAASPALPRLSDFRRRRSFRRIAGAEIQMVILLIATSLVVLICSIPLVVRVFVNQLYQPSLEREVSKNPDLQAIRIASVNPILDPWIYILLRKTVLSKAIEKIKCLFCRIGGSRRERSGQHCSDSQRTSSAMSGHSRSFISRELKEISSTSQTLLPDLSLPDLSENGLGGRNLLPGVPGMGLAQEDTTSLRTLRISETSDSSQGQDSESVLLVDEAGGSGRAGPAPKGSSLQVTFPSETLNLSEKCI", "assay": "Radioligand binding, EP4", "details": "HEK-293 cells expressing EP4, [3H]PGE2; read-out: EP4 Ki EC50", "procedure": "HEK-293 cells stably expressing the human or feline FP receptor, or EP1, EP2, or EP4 receptors were washed with TME buffer, scraped from the bottom of the flasks, and homogenized for 30 sec using a Brinkman PT 10/35 polytron. TME buffer was added to achieve a final 40 ml volume in the centrifuge tubes (the composition of TME is 100 mM TRIS base, 20 mM MgCl2, […]; 10N HCl is added to achieve a pH of 7.4).\nThe cell homogenate was centrifuged at 19000 r.p.m. for 20 min at 4° C. using a Beckman Ti-60 rotor. The resultant pellet was resuspended in TME buffer to give a final 1 mg/ml protein concentration, as determined by Biorad assay. Radioligand binding competition assays vs. [^3H-]17-phenyl PGF2n (5 nM) were performed in a 100 μl volume for 60 min. Binding reactions were started by adding plasma membrane fraction. The reaction was terminated by the addition of 4 ml ice-cold TRIS-HCl buffer and rapid filtration through glass fiber GF/B filters using a Brandel cell harvester. The filters were washed 3 times with ice-cold buffer and oven dried for one hour.\n[^3H-] PGE2 (specific activity 180 Ci mmol) was used as the radioligand for EP receptors. [^3H] 17-phenyl PGF2α was employed for FP receptor binding studies. […] 17-phenyl PGF2α and non-specific binding determined with 10^−5M of unlabeled PGE2, or 17-phenyl PGF2α, according to receptor subtype studied."}, "[7]": {"target": "T3, EP2 (Homo sapiens, UniProt P43116)", "T3 sequence (P43116 whole entry)": "as the sequence (P43116 whole entry) above", "assay": "Competition binding, human EP2 receptors ([3H]PGE2)", "set-up": "expressed in transfected cells", "details": "HEK 293 cells stably expressing human EP2, [3H]PGE2", "procedure": "Competition binding experiments were performed in a medium containing Hank's balanced salt solution, Hepes 20 mM, pH 7.3, membranes (˜60 μg protein) or 2×10^5 cells from HEK 293 cells stably expressing human EP2 receptors, [^3H]PGE2 (10 nM) and various concentrations of test compounds in a total volume of 300 μl. Reaction mixtures were incubated at 23° C. for 60 min, and were filtered over Whatman GF/B filters under vacuum. Filters were washed three times with 5 ml ice-cold buffer containing 50 mM Tris/HCl (pH 7.3). Non-specific binding was estimated in the presence of excess unlabeled PGE2 (10 μM). Binding data fitted to the binding model for a single class of binding sites, using nonlinear regression analysis. IC50 values thus obtained were converted to Ki using the equation of Ki=(IC50/(1+[L]/KD) where [L] represents PGE2 concentration (10 nM) and KD the dissociation constant for [^3H]PGE2 at human EP2 receptors (40 nM). […]\nThe cell homogenate was centrifuged at 19000 r.p.m. for 20 min at 4° C. using a Beckman Ti-60 rotor. The resultant pellet was resuspended in TME buffer to give a final 1 mg/ml protein concentration, as determined by Biorad assay. […]\n[^3H-] […] 17-phenyl PGF2α and non-specific binding determined with 10^−5M of unlabeled PGE2, or 17-phenyl PGF2α, according to receptor subtype studied."}, "[8]": {"target": "T3, EP2", "assay": "cAMP assay, EP2", "type": "cell-based", "set-up": "expressed in transfected cells; host or cells: HEK-EBNA cells", "details": "HEK-EBNA cells expressing EP2", "procedure": "A 384-well drug plate was prepared to contain 6 test compounds, PGE2 and cAMP in 16 serial dilutions in triplicate, using a Biomek station. HEK-EBNA cells expressing a target PG receptor subtype (EP2 or EP4) were suspended in a stimulation buffer (HBSS, 0.1% BSA, 0.5 mM IBMX and 5 mM HEPES, pH 7.4) in a density of 10^4 cells/5 μl. The reaction was initiated by mixing […] drug dilutions with 5 μl of HEK-EBNA cells in a well, carried out for 30 min at room temperature, and followed by the addition of 5 μl anti-cAMP acceptor beads in the control buffer with Tween-20 (25 mM NaCl, 0.03% Tween-20, 5 mM HEPES, pH7.4). After 30 min in the dark at room temperature, the mixtures were incubated with 15 μl biotinylated-cAMP/strepavidin donor beads in Lysis/Detection buffer (0.1% BSA, 0.3% Tween-20 and 5 mM HEPES, pH7.4) for 45 min at the room temperature. Fluorescence changes were read using a Fusion-alpha HT microplate reader."}}, "data": [{"smiles": "CCCCCC(=O)c1ccc([C@@H]2[C@@H](C/C=C\\CCCC(=O)OC(C)C)[C@H](Cl)C[C@H]2O)cc1", "note": "[Entry 2]", "values": [{"measurement": "DOG Max. IOP (%)", "setting": "[1]", "result": "−37", "unit": "%"}, {"measurement": "DOG Max. hyperemia", "setting": "[2]", "result": 0.8}, {"measurement": "MONKEY Max. IOP (%)", "setting": "[3]", "result": 20, "unit": "%"}, {"measurement": "RABBIT Max. hyperemia", "setting": "[4]", "result": 0}]}, {"smiles": "CCCCCC(=O)c1ccc([C@@H]2[C@@H](C/C=C\\CCCC(=O)O)[C@H](Cl)C[C@H]2O)cc1", "note": "[Entry 1]", "values": [{"measurement": "DOG Max. IOP (%)", "setting": "[1]", "result": "−50", "unit": "%"}, {"measurement": "DOG Max. hyperemia", "setting": "[2]", "result": 2.0}, {"measurement": "MONKEY Max. IOP (%)", "setting": "[3]", "result": 31, "unit": "%"}]}, {"smiles": "CCCCCC(=O)c1ccc([C@@H]2[C@@H](C/C=C\\CCCC(=O)O)[C@H](Cl)C[C@H]2O)cc1", "note": "[drawing 41]", "values": [{"measurement": "EC50", "setting": "[5]", "result": 31, "unit": "nM"}, {"measurement": "Ki", "setting": "[6]", "result": 2810, "unit": "nM"}, {"measurement": "Ki", "setting": "[7]", "result": 111, "unit": "nM"}, {"measurement": "EC50", "setting": "[8]", "result": 9, "unit": "nM"}]}]}
